Assay results taken from patent US9725430B2, “Use of small molecule inhibitors targeting EYA tyrosine phosphatase” (Children's Hospital Medical Center, priority 2013, dated 2017).

Key:
[1] = tested on: HUVECs; test: HUVEC transwell migration; assay type: cell-based, human; settings: 5 μM
Text: (§1) In order to determine whether EYA3 knock down would affect cell migration, a modified Boyden chamber assay was used to measure HUVEC migration. Briefly, human umbilical vein endothelial cells (HUVECs) were purchased from Lonza (Walkersville, Md.) and maintained in the endothelial cell growth medium (PromoCell, Hleidelberg, Germany), under a 5% CO2 atmosphere. MCF10A cells from ATCC were stably transfected with either pcDNA 3.2N5-DEST (vector control), V5-EYA2 or V5-EYA2(D250N). Transwell migration experiments were performed as previously described (Pandey, R. N. et al. Oncogene 29, 3715-3722, (2010)).

[2] = tested on: MCF10A(EYA2) cells; test: Transwell migration of MCF10A-EYA2 cells; assay type: cell-based; settings: 7.5 μM
Text: The tyrosine phosphatase activity of Eya3 and Eya2 promotes single cell motility in breast cancer cells (Pandey, R. N. et al. Oncogene (2010) 29:3715-3722, incorporated by reference in its entirety). EYA2 is over-expressed in breast cancers and is associated with increased metastasis and a poorer outcome (Farabaugh, et al. Oncogene (2011) 259). […] Overexpression of EYA2, but not the tyrosine-phosphatase dead mutant, promoted cell motility (FIG. 2a). […] This effect was dose-dependent (FIG. 2d) and compound (1a) was able to reduce cell motility by over 50% at the lowest concentration (1 μM) tested.
as §1

[3] = target: EYA3 (Homo sapiens (Human), UniProt Q99504); test: pNPP assay, full-length human recombinant EYA3; assay type: biochemical
EYA3, sequence (Q99504 127-573): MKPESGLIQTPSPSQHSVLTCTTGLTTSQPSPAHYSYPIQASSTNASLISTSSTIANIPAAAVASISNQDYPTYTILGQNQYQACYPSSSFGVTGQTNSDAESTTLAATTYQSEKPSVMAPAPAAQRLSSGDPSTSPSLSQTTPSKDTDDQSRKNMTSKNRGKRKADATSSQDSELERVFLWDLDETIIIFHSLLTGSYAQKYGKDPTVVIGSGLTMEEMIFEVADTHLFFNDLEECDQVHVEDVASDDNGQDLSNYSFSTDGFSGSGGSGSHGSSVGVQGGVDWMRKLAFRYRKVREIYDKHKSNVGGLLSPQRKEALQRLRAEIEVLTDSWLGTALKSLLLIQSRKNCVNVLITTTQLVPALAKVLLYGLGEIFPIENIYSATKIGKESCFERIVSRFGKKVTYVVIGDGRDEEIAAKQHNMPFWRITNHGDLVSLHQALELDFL
Text: The catalytic domain of mouse Eya3 (“ED”, comprising residues 223-510 of Eya3) was purified as described by Rayapureddi, J. P. et al. (FEBS Lett 580, 3853-3859 (2006), incorporated by reference in its entirety). For full-length Eya3 (“hEYA3”), human Eya3 isoform 2 (representing the major species identified in human cell lines by mass spectrometry, expressed as residues 127-573 of NM_001990, isoform 1) was sub-cloned into pDEST565 to express a poly-histidine-Glutathione-S-transferase (His-GST) tagged fusion protein with a TVMV protease site. The protein was purified by glutathione-S-transferase affinity chromatography followed by TVMV cleavage, Ni-NTA chromatography, and finally size exclusion chromatography. […]
The compounds were then tested using full-length human recombinant, purified EYA3 and pNPP as a substrate. Compounds were dissolved in DMSO and diluted as needed. […] Reactions were incubated at 30° C. for 30 minutes and quenched with 100 mM EDTA pH 10. IC50 values were then calculated directly from regression curves using PRISM software. All reported values are the mean of two independent experiments.

[4] = target: PTP1B (Homo sapiens (Human), UniProt P18031); test: PTP1B-catalyzed pNPP hydrolysis; assay type: biochemical; settings: for IC50: pNPP substrate
PTP1B, sequence (P18031 whole entry, species assumed, the tested form may be a part): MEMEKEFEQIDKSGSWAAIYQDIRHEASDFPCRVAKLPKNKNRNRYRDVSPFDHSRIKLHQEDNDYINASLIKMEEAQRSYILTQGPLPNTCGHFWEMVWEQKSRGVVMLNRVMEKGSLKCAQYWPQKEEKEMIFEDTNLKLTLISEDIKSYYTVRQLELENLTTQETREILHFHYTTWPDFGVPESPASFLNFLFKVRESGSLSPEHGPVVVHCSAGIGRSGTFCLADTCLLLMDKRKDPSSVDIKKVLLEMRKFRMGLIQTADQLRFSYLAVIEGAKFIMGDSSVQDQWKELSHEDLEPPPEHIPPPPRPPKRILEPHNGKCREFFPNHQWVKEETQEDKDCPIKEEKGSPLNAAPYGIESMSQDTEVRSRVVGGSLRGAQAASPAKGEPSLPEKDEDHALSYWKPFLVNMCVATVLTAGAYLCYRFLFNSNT
Experimental: The catalytic domain of human Eya2 (“hEYA2(ED)”) was similarly sub-cloned as a polyhistidine fusion construct in the vector pDEST-527. Fusion protein was purified by NiNTA chromatography and followed by size-exclusion chromatography over a Superdex-75 column. The relative purity of protein samples was determined using SDS-PAGE. PTP1B was purified as described previously (Rayapureddi, J. P. et al. Nature 426, 295-298 (2003), incorporated by reference in its entirety).
An inhibitory assay was conducted using the previously described p-nitrophenylphosphate assay (Rayapureddi, J. P. et al. Nature 426, 295-298 (2003)). Briefly, ED was incubated in a reaction mixture containing 20 mM MES pH 6, 2 mM MgCl2, 125 μM inhibitor, 3.4 mM para-nitrophenol phosphate (pNPP) and 0.01 μg/μL enzyme.
PTP1B is a classical Cys-based tyrosine phosphatase.

[5] = tested on: HUVECs; test: HUVEC cell viability assay (WST-8); assay type: cell-based, human; settings: 3 days of exposure
Experimental: Additionally, a cell viability assay was conducted over 3 days of exposure to test compounds 1, 1a and 1g in order to assess both the possibility of immediate cellular toxicity as well as any effect on cell proliferation. HUVECs were seeded and equilibrated for 24 hours before addition of the test compounds. Cellular metabolic activity was measured at defined time-points using the tetrazolium dye WST-8 to quantify NAD(P)H-dependent cellular oxidoreductase enzyme activity.

[6] = tested on: mouse aortic rings; test: Aortic ring sprouting assay; assay type: cell-based; settings: 5 μM, 10 days
Experimental: Additionally, the effect of compounds 1d, 1f, 1h, 1i, 1g, 2 and 2a on cell proliferation, migration, tube formation, micro-vessel branching, and perivascular recruitment using an aortic ring sprouting assay. When slices of mouse aorta are cultured in collagen gels there is typically a lag phase for the first 4 days followed by linear sprouting of endothelial cells. By day 6, branching is observed. All the test compounds were initially assayed at 7.5 μM and the number of branch-points counted. When there was a severe effect (no visible sprouting), or when there was no apparent effect, other doses were tested to establish a dose-dependence. All of the compounds assayed were able to attenuate aortic ring sprouting. There was a strong reduction in initial sprouting and some attenuation of branching. With the exception of 2a, in all cases where there was sprouting, the length of sprouts was shorter than in the controls.
Endothelial cell migration can also be studied […] using the aortic ring assay in which sprouting angiogenesis is monitored by the formation of vascular sprouts outside the wall of mouse aortic rings incubated in collagen matrix and stimulated by VEGF (Gerhardt, H., et al. EXS, 3-15 (2005), hereby incorporated by reference in its entirety). Briefly, mice were obtained from the Cincinnati Children's veterinary service and handled according to the institutional animal care and use protocol. […] Mice were 4 to 6 weeks old female C57BL16, and aortic ring explants were cultured at 37° C. in a humidified incubator under a 5% CO2 atmosphere.
Each inhibitor was serially diluted (between 0.25 mM and 7.5 mM) to stocks of 1000× the working concentrations in sterile 100% DMSO in order to achieve an equal final concentration of DMSO (0.1% v/v) in all culture conditions. For the experiments, the compounds were diluted in EBM containing 2.5% FBS, penicillin/streptomycin and 20 ng/ml VEGF165 (R&D Systems, Minneapolis, Minn.). Each compound was applied from the first day of culture over a 10-day period with medium change every two days. In all experiments, the vehicle (DMSO, 0.1%) was used as control. The sprouting density was derived from counting the number of branches per ring, and the extent of angiogenic sprouting was estimated by measuring the total surface area covered by the vessels as illustrated in FIG. 7.

[7] = tested on: HUVECs; test: HUVEC proliferation (MTT); assay type: cell-based, human; settings: 5 μM, 24 hours

Compound	HUVEC cell motility [1]	cell migration [2]	IC50 ([3]; pNPP substrate, full-length EYA3) [µM]	fold greater activity towards EYA3 than PTP1B ([4]; EYA3 vs PTP1B)	IC50 [4] [µM]	cell viability [5]	sprout length and microvascular density of aortic rings [6]	HUVEC cell proliferation [7]	inhibitory effect in presence of detergent ([3]; 0.01% Triton X-100)	mode of inhibition (substrate titration) ([3]; increasing substrate concentration)
CCc1oc2ccccc2c1C(=O)c1ccc(O)cc1 [Compound 1a]	attenuated HUVEC cell motility	significantly inhibited cell migration	17	over 100 fold	> 150	reduced cell viability	shorter sprouts and significantly lower microvascular density	no effect on cell proliferation	–	–
CCc1oc2ccccc2c1C(=O)c1cc(Br)c(O)c(Br)c1 [Compound 1, Benzbromarone, reference compound]	attenuated HUVEC cell motility	significantly inhibited cell migration	–	–	53.8	reduced cell viability	shorter sprouts and significantly lower microvascular density	no effect on cell proliferation	retained	not a competitive inhibitor
